For the assay, the target named is T1, CSNK1G3 (CK1 gamma 3) (Homo sapiens, UniProt Q9Y6M4).
T1 construct: purchased Thermo Fisher Scientific (Life Technologies) SelectScreen
The experiment in a line: SelectScreen Z'LYTE. In kind it is biochemical. The method in brief:
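Compound tested in SelectScreen activity assays, Z'LYTE for CSF1R, CDK1/cyclin B and MAP2K6 and Adapta for CAMK1. ATP for CAMK1 was listed as 10, and Km app was used for CSF1R. Results are expressed in percent.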

These results are taken from PMC6934184, “Selective DNA-PKcs inhibition extends the therapeutic index of localized radiotherapy and chemotherapy” (The Journal of Clinical Investigation, 2019).

T1 sequence (Q9Y6M4 whole entry): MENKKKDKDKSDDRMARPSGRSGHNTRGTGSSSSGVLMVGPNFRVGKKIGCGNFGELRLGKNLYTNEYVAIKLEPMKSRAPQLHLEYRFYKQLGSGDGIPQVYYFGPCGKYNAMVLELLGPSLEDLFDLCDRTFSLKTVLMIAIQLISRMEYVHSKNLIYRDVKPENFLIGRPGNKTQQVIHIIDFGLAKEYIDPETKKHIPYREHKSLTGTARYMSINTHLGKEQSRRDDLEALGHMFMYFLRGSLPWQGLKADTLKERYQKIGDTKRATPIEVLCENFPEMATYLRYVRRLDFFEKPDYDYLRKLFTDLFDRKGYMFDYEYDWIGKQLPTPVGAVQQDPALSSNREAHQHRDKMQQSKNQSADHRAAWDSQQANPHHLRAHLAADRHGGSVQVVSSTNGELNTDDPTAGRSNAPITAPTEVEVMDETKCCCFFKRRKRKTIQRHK

As to `CN(C(=O)CN1CCOCC1)c1ccc2sc3c(-c4cccc5c(=O)cc(N6CC7CCC(C6)O7)oc45)cccc3c2c1` [NU5455], testing at 1 µM gave an inhibition of 4.2%.
